Assay results taken from publication PMC7835894 (Molecules, 2021).

Tests used:
WI-38 = assay: MTT antiproliferation/cytotoxicity assay; type: cell-based, human; details: for IC50: Homo sapiens, WI-38 normal cells, MTT, 24 h, mean ± SEM; for SI (selectivity index): WI-38, SI = IC50 (WI-38)/IC50 (cell line)
Protocol: (§1) The antiproliferation and cytotoxicity were assessed using 3-(4,5-dimethylthiazol-2-yl)-2,5-diphenyltetrazolium bromide (MTT, Serva) colorimetric assay. To investigate the antiproliferation, all cell lines were seeded at a density of 20,000 cells per well in 96-well plates and allowed to adhere overnight. […] These concentrations were prepared by diluting the stock solutions with serum-free culture media. The negative control cells were those treated with 0.1% DMSO solvent alone. The treated cells were handled in reduced light and maintained under standard culture growth conditions for 24 h. After the incubation period, MTT powder was prepared as a stock solution (5 mg/mL) and 20 μL of the MTT working reagent (final concentration 0.5 mg/mL) was added to each well. This was followed by incubation with MTT reagent for 4 h in a humidified atmosphere (37 °C, 5% CO2) with subsequent addition of 150 μL of DMSO solubilizing solvent and incubation for 20 min. The absorbance of solubilized violet formazan crystals was measured at 540 nm with Biotek 800 TS microplate reader. IC50 was calculated as the concentration of retinoid that produced 50% cell growth inhibition. For cytotoxicity assessment, WI-38 normal human fibroblast cells were used for the calculation of SI which is the ratio of IC50 retinoid (WI-38)/IC50 retinoid (cancer cell line).

Vero = assay: MTT antiproliferation/cytotoxicity assay; type: cell-based, African green monkey; details: Chlorocebus sabaeus, Vero normal cells, 24 h, mean ± SEM
Protocol: as §1

A549 = assay: MTT antiproliferation assay; type: cell-based, human; details: for IC50: Homo sapiens, A549, MTT, 24 h, mean ± SEM; for SI (selectivity index): A549, SI = IC50 (WI-38)/IC50 (cancer cell line)
Protocol: as §1

Caco-2 = assay: MTT antiproliferation assay; type: cell-based, human; details: for IC50: Homo sapiens, Caco-2, MTT, 24 h, single agent, mean ± SEM; for SI (selectivity index): Caco-2, SI = IC50 (WI-38)/IC50 (cancer cell line)
Protocol: as §1

DU-145 = assay: MTT antiproliferation assay; type: cell-based, human; details: for IC50: Homo sapiens, DU-145, MTT, 24 h, mean ± SEM; for SI (selectivity index): DU-145, SI = IC50 (WI-38)/IC50 (cancer cell line)
Protocol: as §1

HCT-116 = assay: MTT antiproliferation assay; type: cell-based, human; details: for IC50: Homo sapiens, HCT-116, MTT, 24 h, mean ± SEM; for SI (selectivity index): HCT-116, SI = IC50 (WI-38)/IC50 (cancer cell line)
Protocol: as §1

HepG2 = assay: MTT antiproliferation assay; type: cell-based, human; details: for IC50: Homo sapiens, HepG2, MTT, 24 h, mean ± SEM; for SI (selectivity index): HepG2, SI = IC50 (WI-38)/IC50 (cancer cell line)
Protocol: as §1

Huh7 = assay: MTT antiproliferation assay; type: cell-based, human; details: for IC50: Homo sapiens, Huh-7, Huh7, MTT, 24 h, mean ± SEM; for SI (selectivity index): Huh7, SI = IC50 (WI-38)/IC50 (cancer cell line)
Protocol: as §1

MCF-7 = assay: MTT antiproliferation assay; type: cell-based, human; details: for IC50: Homo sapiens, MCF7, MCF-7, MTT, 24 h, mean ± SEM; for SI (selectivity index): MCF-7, SI = IC50 (WI-38)/IC50 (cancer cell line)
Protocol: as §1

MDA-MB 231 = assay: MTT antiproliferation assay; type: cell-based, human; details: for IC50: Homo sapiens, MDA-MB 231, MTT, 24 h, mean ± SEM; for SI (selectivity index): MDA-MB 231, SI = IC50 (WI-38)/IC50 (cancer cell line)
Protocol: as §1

PC3 = assay: MTT antiproliferation assay; type: cell-based, human; details: for IC50: Homo sapiens, PC-3, PC3, MTT, 24 h, mean ± SEM; for SI (selectivity index): PC3, SI = IC50 (WI-38)/IC50 (cancer cell line)
Protocol: as §1

Caco-2 cells [1] = assay: Annexin V-FITC/PI apoptosis assay (flow cytometry); type: cell-based, human; details: Caco-2, IC50 concentration
Protocol: The ability of synthetic retinoids to induce apoptosis in one of the sensitive cancer cell lines (namely, Caco-2 cells) was detected by Annexin V-FITC and PI according to the protocol of the detection kit (Beckman Coulter, Brea, CA, USA). […] Cells were collected, washed with phosphate-buffered saline (PBS) (Lonza), and resuspended in 1 mL of binding buffer. 100 µL cell suspension was incubated with 1 µL FITC-labeled Annexin V and 5 µL PI for 15 min at 4 °C in the dark. Finally, 400 µL ice-cold binding buffer was added, and the apoptotic cells in each sample were analyzed by Beckman Coulter Epics XL flow cytometer. Apoptotic index (AI) was calculated as the number of apoptotic cell deaths expressed as a percentage from the total gated cells.

Caco-2 cells [2] = assay: Intracellular and secreted glutamate assay; type: cell-based, human; details: Caco-2, IC50 doses, 24 h
Protocol: The glutamate assay was performed using the Glutamate Assay Kit (Sigma-Aldrich, MAK004, St. Louis, MO, USA) according to the manufacturer’s protocol. […] Cells were lysed using 100 µL glutamate assay buffer and insoluble cell debris was then removed by centrifugation at 13,000× g for 10 min. The supernatant was transferred to a 10-KDa molecular weight cut-off (MWCO) spin filter (Sigma-Aldrich, St. Louis, MO, USA) to remove any particulates in the sample, and then was brought to a final volume of 50 µL with glutamate assay buffer and transferred to a 96-well plate. Finally, 100 µL of reaction mix was added to each well and the mixture was incubated for 30 min at 37 °C. The optical density was measured at 450 nm using BioTek 800 TS microplate reader (BioTek, Winooski, VT, USA). For the measurement of secreted glutamate, 50 μL samples of extracellular culture medium were placed in a 96-well plate and the kit’s enzymatic reaction mix was added to induce a glutamate-dependent color change. After 30 min incubation, the reaction products were read at the same wavelength. For determination of glutamate concentration (nmole/µL), a calibration curve was constructed using supplied 0.1 M glutamate standard with different dilutions (0 (blank), 2, 4, 6, 8 and 10 nmole per well). Glutamate concentration was measured according to the manufacturer’s instruction and as documented in earlier studies.

Caco-2 cells [3] = assay: Total antioxidant capacity (TAC/TAO); type: cell-based, human; details: Caco-2 cell lysate, IC50 concentration, 24 h; solvent control 32.6 ± 0.21
Protocol: Total antioxidant capacity was assayed spectrophotometrically using a Biodiagnostics® kit (Catalogue number TA 25 13, Biodiagnostics, Cairo, Egypt). […] The measurement of total antioxidants is based on treating the cell lysate with a known excess of H2O2 (50 µM). A certain amount of H2O2, equivalent to TAC, is eliminated leaving a residual amount of H2O2 that is quantified colorimetrically by the enzymatic conversion of 3, 5, dichloro-2-hydroxy benzene sulphonate to a colored product.

IC50 (A549) [µM] | IC50 (Caco-2) [µM] | IC50 (DU-145) [µM] | IC50 (HCT-116) [µM] | IC50 (HepG2) [µM] | IC50 (Huh7) [µM] | IC50 (MCF-7) [µM] | IC50 (MDA-MB 231) [µM] | IC50 (PC3) [µM] | Structure (SMILES) | IC50 (WI-38) [µM] | IC50 (Vero) [µM] | % early apoptotic cells (C+−) (Caco-2 cells [1]; 12 h treatment) [%] | % late apoptotic cells (C−+) (Caco-2 cells [1]; 12 h treatment) [%] | % necrotic cells (C++) (Caco-2 cells [1]; 12 h treatment) [%] | % viable cells (C−−) (Caco-2 cells [1]; 12 h treatment) [%] | % early apoptotic cells (C+−) (Caco-2 cells [1]; 24 h treatment) [%] | % late apoptotic cells (C−+) (Caco-2 cells [1]; 24 h treatment) [%] | % necrotic cells (C++) (Caco-2 cells [1]; 24 h treatment) [%] | % viable cells (C−−) (Caco-2 cells [1]; 24 h treatment) [%] | released (extracellular) glutamate, magnitude of reduction (Caco-2 cells [2]) [%] | also measured
84.7 ± 3.2 | 58 ± 1 | > 100 | > 100 | 36.2 ± 1.9 | > 100 | 99 ± 0.26 | > 100 | > 100 | CC1=C(/C=C/C(C)=C/C=C/C(C)=C/C(=O)O)C(C)(C)CCC1 [ATRA, All-trans retinoic acid, reference compound] | 34 ± 1.1 | > 100 | 11.99 ± 1.9 | 0.00 | 0.01 | 87.99 ± 15.0 | 47.4 ± 2.5 | 0.0 | 0.28± 0.17 | 52.4 ± 11.5 | 24.1 | Total antioxidant activity (TAO) (Caco-2 cells [3]): 62.6 ± 0.15 µM/L
> 100 | 10.8 ± 0.1 | 86.9 ± 2 | > 100 | 42.2 ± 0.92 | > 100 | 9.4 ± 0.13 | > 100 | > 100 | CC1(C)CCC(C)(C)c2cc(C#Cc3cccc(C(=O)O)c3)ccc21 [EC19, 3-(5,5,8,8-tetramethyl-5,6,7,8-tetrahydronaphthalen-2-ylethynyl) benzoic acid] | 48.4 ± 1.2 | > 100 | 6.30 ± 1.1 | 0.01 | 0.4 ± 0.1 | 93.65 ± 14.0 | 75.3 ± 13.8 | 0.0 | 0.18 ± 0.05 | 24.5 ± 11.8 | 1.4 | SI (selectivity index) (WI-38): 1; SI (selectivity index) (A549): <1; SI (selectivity index) (Caco-2): 4.5 ± 0.01; SI (selectivity index) (DU-145): 0.56 ± 0.001; SI (selectivity index) (HCT-116): <1; SI (selectivity index) (HepG2): 1.2 ± 0.002; SI (selectivity index) (Huh7): 0.14 ±0.01; SI (selectivity index) (MCF-7): 5.18 ± 0.1; SI (selectivity index) (MDA-MB 231): <1; SI (selectivity index) (PC3): <1; % Apoptotic index (AI) (Caco-2 cells [1]; 12 h treatment): 6.3%; Total antioxidant activity (TAO) (Caco-2 cells [3]): 22.6 ± 0.024 µM/L
> 100 | 14.7 ± 0.73 | > 100 | 44.5 ± 1.1 | 0.74 ± 0.001 | > 100 | 5.56 ± 0.01 | > 100 | > 100 | CC1(C)CCC(C)(C)c2cc(C#Cc3ccc(C(=O)O)cc3)ccc21 [EC23, 4-(5,5,8,8-tetramethyl-5,6,7,8-tetrahydronaphthalen-2-ylethynyl) benzoic acid] | 8.01 ± 0.13 | 35.2 ± 1.02 | 8.34 ± 1.1 | 0.01 | 0.05 | 91.61 ± 13.7 | 65.4 ± 18.4 | 0.0 | 0.16 ± 0.14 | 34.4 ± 18.3 | 5 | SI (selectivity index) (WI-38): 1; SI (selectivity index) (A549): <1; SI (selectivity index) (Caco-2): 0.54 ±0.01; SI (selectivity index) (DU-145): <1; SI (selectivity index) (HCT-116): 0.18 ± 0.003; SI (selectivity index) (HepG2): 10.82 ± 1.0; SI (selectivity index) (Huh7): 0.02 ± 0.001; SI (selectivity index) (MCF-7): 1.44 ± 0.004; SI (selectivity index) (MDA-MB 231): <1; SI (selectivity index) (PC3): <1; % Apoptotic index (AI) (Caco-2 cells [1]; 12 h treatment): 8.3%; Total antioxidant activity (TAO) (Caco-2 cells [3]): 22.6 ± 0.024 µM/L
